Source: patent US11401306B2, “HPV16 non HLA-restricted t-cell vaccines, compositions and methods of use thereof” (priority 2016, dated 2022)
No end group written: not given here.

What was measured:
[1] = system: HPV-specific T-cell response (splenocytes); assay: IFN-g ELISPOT on splenocytes of vaccinated humanized HLA-A2 transgenic mice; format: in vivo; conditions: for Immune Response, Method: ELISPOT: HLA-A2 humanized transgenic mice, IFN-gamma ELISPOT
From the text: (§1) Sequence selection was accomplished herein using both tumor regression studies in C57/B6 mice, and interferon-gamma ELISPOT studies in HLA-A2 humanized transgenic mice. […] In the HLA-A2 mouse model ELISPOT study, at least 20 spots per million splenocytes was regarded to be a positive response.
This example highlights the approach to evaluating T-cell responses using ELISPOT studies in humanized HLA-A2 transgenic mice. In these studies, the vaccine contained the selected peptide at a concentration of 0.1-3.0 mg/mL and cationic liposomes when used, at a concentration of 0.2-3.0 mg/mL. Humanized HLA-A2 transgenic mice having components of the human immune system capable of recognizing human antigens were vaccinated on day 0 and day 7 with 100 uL of the vaccine. On day 14 the mice were sacrificed and HPV-specific immune response evaluated by interferon-gamma ELISPOT using standard approaches with the splecocytes from the mice (4-8 per group). The splenocytes were stimulated with the specified CD8+ T-cell epitope peptides or the long multi-epitope peptides specified in Table 2. The number of IFN-g spots per million cells is listed for the specified examples. […] The ability of the humanized transgenic mice to successfully generate a T-cell immune response (>20 spots) when stimulated with each of the long multi-epitope peptides as well as short single epitope peptides confirms that the selected peptides are effectively processed and presented to T-cells. In these studies, un-stimulated splenocytes and splenocytes stimulated with irrelevant peptides were both used together as negative controls in every assay. For the positive control in the assay ConA was used.
The present study was performed to evaluate the effect of chemical modification of select peptides on immunogenicity and their ability to be processed, presented and to prime human CD8+ HPV-specific T-cell responses. Peptides corresponding to SEQ ID NO: 23 and 25 contain cysteines which upon oxidation lead to the formation of dimers and other multimers. Two vaccine formulations were prepared containing peptides corresponding to SEQ ID NO: 23 and 25.
In Formulation A: Both peptides were monomeric with high purity confirmed by HPLC analysis. The vaccine contained 1.5-1.6 mg/mL of each peptide.
In Formulation B: Significant oxidation and multimer formation of both peptides was confirmed by HPLC analysis.
Both formulations were mixed 1:1 with 5.8 mg/mL of R-DOTAP prior to vaccination.
The immunogenicity of the peptides was compared as described in the above examples in 10 HLA-A2 mice per formulation by evaluating the ability to induce CD8+ T-cells. ELISPOT studies were performed as described above.

[2] = system: TC-1 tumor; assay: TC-1 tumor regression screening of peptides in C57/B6 mice; format: in vivo; parameters: key: Positive: a positive T-cell response was a T-cell response that resulted in regression of the tumor; conditions: TC-1 tumors in C57/B6 mice, vaccinated day 7, peptide alone or with cationic lipid
From the text: as §1
This example illustrates the evaluation or screening of several HPV16 E7 peptides in the TC-1 mouse tumor regression model for their effective processing and presentation of the key epitopes leading to HPV-specific T-cell induction and subsequent tumor regression.
In the tumor regression screening studies mice were implanted with 100,000 TC-1 cells on day 0. On day 7, once the tumors were well established the mice were vaccinated with the specific peptide sequences, either formulated alone or in combination with cationic lipids such as DOTMA, DOEPC or R-DOTAP to facilitate up-take and presentation. In these studies, the vaccine contained the selected peptide at a concentration of 0.1-3.0 mg/mL and cationic liposomes at a concentration of 0.2-3.0 mg/mL. In the cases where the peptide sequences were lipidated by attaching a palmitoyl chain, the peptides were simply mixed with the cationic liposomes prior to vaccination. In the case of the non-lipidated peptides, the liposomes were made and peptides encapsulated by traditional thin film liposome preparation methods (F Szoka, and D Papahadjopoulos, Comparative Properties and Methods of Preparation of Lipid Vesicles (Liposomes), Annual Review of Biophysics and Bioengineering, Vol. 9:467-508, 1980). Other methods well known to those skilled in the art may also have been used.
A sample tumor regression plot showing results for peptides corresponding to SEQ ID NO: 1 (blank square), SEQ ID NOS: 7, 8, 31 32 and 31 (solid black circle), SEQ ID NO: 7 (blank circle), and SEQ ID NO: 8 (solid black triangle) is shown in FIG. 3.

[3] = splenocytes stimulated with YMLDLQPETT (SEQ ID NO: 14)
[4] = splenocytes stimulated with TIHDIILECV (SEQ ID NO: 21)
[5] = splenocytes stimulated with LLMGTLGIV (SEQ ID NO: 15)
[6] = splenocytes stimulated with TLGIVCPIC (SEQ ID NO: 22)

| Compound | Immune Response, Method: ELISPOT [1] | Immune Response, Method: tumor regression [2] | further results |
| --- | --- | --- | --- |
| CSCC[C@H](NC(=O)[C@@H](N)Cc1ccc(O)cc1)C(=O)N[C@@H](CC(C)C)C(=O)N[C@@H](CC(=O)O)C(=O)N[C@@H](CC(C)C)C(=O)N[C@@H](CCC(N)=O)C(=O)N1CCC[C@H]1C(=O)N[C@@H](CCC(=O)O)C(=O)N[C@H](C(=O)N[C@H](C(=O)O)[C@@H](C)O)[C@@H](C)O [SEQ ID NO: 14] | Positive, ELISPOT (at least 20 spots per million splenocytes was regarded to be a positive response) | – | ELISPOT result Av spots/10^6 cells [1, 3]: 580 spots/10^6 cells |
| CC[C@H](C)[C@H](NC(=O)CNC(=O)[C@H](CC(C)C)NC(=O)[C@@H](NC(=O)CNC(=O)[C@H](CCSC)NC(=O)[C@H](CC(C)C)NC(=O)[C@@H](N)CC(C)C)[C@@H](C)O)C(=O)N[C@H](C(=O)O)C(C)C [SEQ ID NO: 15] | Positive, ELISPOT (at least 20 spots per million splenocytes was regarded to be a positive response) | – | – |
| CC[C@H](C)[C@H](NC(=O)CNC(=O)[C@H](CC(C)C)NC(=O)[C@@H](N)[C@@H](C)O)C(=O)N[C@H](C(=O)N[C@@H](CS)C(=O)N1CCC[C@H]1C(=O)N[C@H](C(=O)N[C@@H](CS)C(=O)O)[C@@H](C)CC)C(C)C [SEQ ID NO: 22] | Positive, ELISPOT (at least 20 spots per million splenocytes was regarded to be a positive response) | – | – |
| CDSTLRLCVQ STHVDIRT (CDSTLRLCVQSTHVDIRT) [SEQ ID NO: 32, E7 61-78 peptide] | – | Positive, tumor | – |
| DRAHYNIVTF [SEQ ID NO: 2, HPV16 E7 48-57 peptide] | – | Negative, tumor regression | – |
| ELQTTIHDIILECVYCKQQLL [SEQ ID NO: 11, HPV16 E6 25-45 peptide] | Positive, ELISPOT (at least 20 spots per million splenocytes was regarded to be a positive response) | – | ELISPOT result Av spots/10^6 cells [1, 4]: 262 spots/10^6 cells |
| EPDRAHYNIVTFCCKCDS [SEQ ID NO: 8, HPV16 E7 46-63 peptide] | – | Negative, tumor regression | – |
| GQAEPDRAHYNIVTF [SEQ ID NO: 5, HPV16 E7 43-57 peptide] | – | Positive, tumor regression | – |
| KFYSKISEYRHCYYSLYGTTL [SEQ ID NO: 12, printed as E7 75-95 peptide] | Negative, ELISPOT | – | ELISPOT result Av spots/10^6 cells ([1]; splenocytes stimulated with KISEYRHCY (SEQ ID NO: 30)): 15 spots/10^6 cells |
| KSS GQAEPDRAHYNIVTF (KSSGQAEPDRAHYNIVTF) [SEQ ID NO: 6, HPV16 E7 43-57 peptide with KSS] | – | Negative, tumor regression | – |
| KSS RAHYNIVTF (KSSRAHYNIVTF) [SEQ ID NO: 4, HPV16 E7 49-57 peptide with KSS] | – | Positive, tumor regression | – |
| LLMGTLGIVCPICSQKP [SEQ ID NO: 10, HPV16 E7 82-98 peptide] | Positive, ELISPOT (at least 20 spots per million splenocytes was regarded to be a positive response) | – | ELISPOT result Av spots/10^6 cells [1, 5]: 1 spots/10^6 cells; ELISPOT result Av spots/10^6 cells [1, 6]: 27 spots/10^6 cells |
| MHGDTPTLHEYMLDLQPETT [SEQ ID NO: 9] | Positive, EISPOT (at least 20 spots per million splenocytes was regarded to be a positive response) | – | ELISPOT result Av spots/10^6 cells [1, 3]: 235 spots/10^6 cells |
| PAGQAEPDRAHYNIVTFC [SEQ ID NO: 7, HPV16 E7 41-58 peptide] | – | Positive, tumor regression | – |
| PalmKSS ELQTTIHDIILECVYCKQQLL [SEQ ID NO: 23] | Positive, ELISPOT (at least 20 spots per million splenocytes was regarded to be a positive response) | – | ELISPOT result Av spots/10^6 cells ([1]; Formulation A (monomeric peptides SEQ ID NO: 23 and 25, with R-DOTAP), stimulated with TIHDIILECV (SEQ ID NO: 21)): 314 spots/10^6 cells; ELISPOT result Av spots/10^6 cells ([1]; Formulation B (oxidized, multimer peptides SEQ ID NO: 23 and 25, with R-DOTAP), stimulated with TIHDIILECV (SEQ ID NO: 21)): 158 spots/10^6 cells; ELISPOT result Av spots/10^6 cells ([1]; splenocytes stimulated with ELQTTIHDIILECVYCKQQLL (SEQID NO: 13)): 8 spots/10^6 cells; ELISPOT result Av spots/10^6 cells [1, 4]: 612 spots/10^6 cells |
| PalmKSS LLMGTLGIV [SEQ ID NO: 28] | Positive, ELISPOT (at least 20 spots per million splenocytes was regarded to be a positive response) | – | ELISPOT result Av spots/10^6 cells [1, 5]: 96 spots/10^6 cells |
| PalmKSS LLMGTLGIVCPICSQKP [SEQ ID NO: 25] | Positive, ELISPOT (at least 20 spots per million splenocytes was regarded to be a positive response) | – | ELISPOT result Av spots/10^6 cells ([1]; Formulation A (monomeric peptides SEQ ID NO: 23 and 25, with R-DOTAP), stimulated with LLMGTLGIV (SEQ ID NO: 15)): 52 spots/10^6 cells; ELISPOT result Av spots/10^6 cells ([1]; Formulation B (oxidized, multimer peptides SEQ ID NO: 23 and 25, with R-DOTAP), stimulated with LLMGTLGIV (SEQ ID NO: 15)): 48 spots/10^6 cells; ELISPOT result Av spots/10^6 cells [1, 5]: 5 spots/10^6 cells; ELISPOT result Av spots/10^6 cells ([1]; splenocytes stimulated with LLMGTLGIVCPICSQKP (SEQ ID NO: 10)): 92 spots/10^6 cells; ELISPOT result Av spots/10^6 cells [1, 6]: 31 spots/10^6 cells |
| PalmKSS MHGDTPTLHEYMLDLQPETT [SEQ ID NO: 24] | Positive, ELISPOT (at least 20 spots per million splenocytes was regarded to be a positive response) | – | ELISPOT result Av spots/10^6 cells ([1]; splenocytes stimulated with MHGDTPTLHEYMLDLQPETT (SEQ ID NO: 9)): 284 spots/10^6 cells; ELISPOT result Av spots/10^6 cells [1, 3]: 79 spots/10^6 cells |
| PalmKSS RAHYNIVTF [SEQ ID NO: 3] | – | Positive, tumor regression | – |
| PalmKSS YMLDLQPETT [SEQ ID NO: 27] | Positive, ELISPOT (at least 20 spots per million splenocytes was regarded to be a positive response) | – | ELISPOT result Av spots/10^6 cells [1, 3]: 280 spots/10^6 cells |
| QQLLRREVYDFAFRDLCIVYR [SEQ ID NO: 13, printed as E7 42-62 peptide] | Negative, ELISPOT | – | ELISPOT result Av spots/10^6 cells ([1]; splenocytes stimulated with FAFRDLCIV (SEQ ID NO: 29)): 6 spots/10^6 cells |
| RAHYNIVTF [SEQ ID NO: 1] | – | Positive, tumor regression | – |
| TIHDIILECV [SEQ ID NO: 21, printed as E7 29-38 peptide] | Positive, ELISPOT (at least 20 spots per million splenocytes was regarded to be a positive response) | – | – |
